Source: paper PMC5120204, “Identification of an orally active small-molecule PTHR1 agonist for the treatment of hypoparathyroidism” (Nature Communications, 2016)

What was measured:
hPTHR1 = molecular target: T1, hPTHR1 (Homo sapiens, UniProt Q03431); assay: Phospholipase C activity assay ([3H]-inositol phosphate) in COS-7 cells expressing hPTHR1; assay type: cell-based; settings: COS-7 cells expressing hPTHR1, 40 min; concentration that achieves the EC50 for hPTH(1–34)
T1 construct: similar to that of cells expressing full-length hPTHR1; expressed in transfected cells; host or cells: COS-7 (transient, FuGENE HD)
T1 sequence (Q03431 27-593 E93Y/D94P/K95Y/E96D/A97V/T99D/G100Y/S101A): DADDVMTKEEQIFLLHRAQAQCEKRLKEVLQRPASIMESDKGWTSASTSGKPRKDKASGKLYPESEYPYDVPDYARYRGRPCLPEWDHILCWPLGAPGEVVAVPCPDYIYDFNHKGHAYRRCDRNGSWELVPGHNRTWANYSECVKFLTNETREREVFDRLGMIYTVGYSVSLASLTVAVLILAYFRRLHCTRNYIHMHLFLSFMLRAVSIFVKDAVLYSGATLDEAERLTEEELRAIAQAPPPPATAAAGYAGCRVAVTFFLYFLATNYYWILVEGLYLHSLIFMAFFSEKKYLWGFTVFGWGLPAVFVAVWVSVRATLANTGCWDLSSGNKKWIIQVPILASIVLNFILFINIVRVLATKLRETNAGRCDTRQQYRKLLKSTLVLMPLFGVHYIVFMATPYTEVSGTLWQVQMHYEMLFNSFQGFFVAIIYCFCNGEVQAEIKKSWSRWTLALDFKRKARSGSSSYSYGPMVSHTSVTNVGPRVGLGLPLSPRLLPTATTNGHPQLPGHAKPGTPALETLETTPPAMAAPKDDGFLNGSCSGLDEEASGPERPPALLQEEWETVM
Method: COS-7 cells (ATCC) were seeded into a 96-well flat-bottomed plate (1.4 × 10^4 cells per 100 μl per well) and incubated overnight. The next day, the COS-7 cells were transfected by adding 10 μl of a mixture of hPTHR1 plasmid or empty vector (0.1 μg per well), FuGENE HD Transfection Reagent (0.4 μl per well, Promega), and Opti-MEM I Reduced Serum Medium (10 μl per well, Life Technologies) to each well. On the second day after the cells were seeded into the plate, the culture medium in the wells was discarded, and 100 μl of ^3H-myoinositol/0.1% BSA/DMEM adjusted to 111 kBq ml^−1 (PerkinElmer, Inc.) was added to each well. […] After that, the ^3H radioactivity was measured using a liquid scintillation analyzer. EC50 values were determined from three independent experiments in […] by a non-linear regression Emax model (JMP ver.9.0.2, SAS Institute). […] The geometric means of the EC50 values obtained in three experiments in duplicate were calculated using Microsoft Office Excel 2007.

endogenous rat PTHR1 = molecular target: T2, endogenous rat PTHR1 (Rattus norvegicus, UniProt P25961); assay: cAMP production in UMR-106 cells; assay type: cell-based
T2 construct: UMR-106 cells, which natively express rat PTHR1; endogenous in cells; host or cells: UMR-106 (ATCC)
T2 sequence (P25961 27-591): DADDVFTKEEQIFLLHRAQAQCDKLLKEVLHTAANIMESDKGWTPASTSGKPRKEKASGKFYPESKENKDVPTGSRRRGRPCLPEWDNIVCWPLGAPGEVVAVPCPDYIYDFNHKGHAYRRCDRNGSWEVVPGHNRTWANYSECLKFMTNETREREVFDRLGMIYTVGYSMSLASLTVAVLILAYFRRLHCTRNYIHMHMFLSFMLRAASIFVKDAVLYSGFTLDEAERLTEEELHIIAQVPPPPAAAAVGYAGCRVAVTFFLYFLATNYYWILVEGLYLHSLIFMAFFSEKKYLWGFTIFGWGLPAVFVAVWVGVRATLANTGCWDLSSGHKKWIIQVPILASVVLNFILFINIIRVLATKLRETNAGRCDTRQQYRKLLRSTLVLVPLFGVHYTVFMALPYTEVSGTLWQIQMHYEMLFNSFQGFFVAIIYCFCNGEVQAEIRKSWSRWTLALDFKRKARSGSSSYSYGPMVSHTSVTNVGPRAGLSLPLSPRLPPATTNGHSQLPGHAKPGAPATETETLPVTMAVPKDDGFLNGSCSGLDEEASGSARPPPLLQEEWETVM

Cc1cc(N2C(=O)NC(=O)C2(C)C)cc(C)c1CCS(=O)(=O)N1CCC2(CC1)N=C(c1ccc(OC(F)(F)F)cc1)NC2=O [PCO371, 1-{3,5-dimethyl-4-[2-({4-oxo-2-[4-(trifluoromethoxy)phenyl]-1,3,8-triazaspiro[4.5]dec-1-en-8-yl}sulfonyl)ethyl]phenyl}-5,5-dimethylimidazolidine-2,4-dione]
EC50 (hPTHR1): 17 µM | cAMP production (endogenous rat PTHR1; 1 μmol l^−1, 20 min): did not induce cAMP production | cAMP production (endogenous rat PTHR1; 20 min): induced cAMP production
